Experimental data as given in patent US20010036944A1, “Certain benzothiazine dioxide endothelin antagonists and processes for their preparation” (priority 1997, published 2001).

Experiments:
[1] = target: T1, recombinant human ETAR (HETA) (Homo sapiens, UniProt P25101); assay: Radioligand binding, [125I]ET-1 to membranes of Ltk- cells expressing recombinant human ETAR (HETA); details: [125I]ET-1 binding, human ETA, Ltk- cell membranes; read-out: HETA (IC50)
T1 construct: expressed in transfected cells; host or cells: Ltk- cells (membrane preparation)
T1 sequence (P25101 21-427): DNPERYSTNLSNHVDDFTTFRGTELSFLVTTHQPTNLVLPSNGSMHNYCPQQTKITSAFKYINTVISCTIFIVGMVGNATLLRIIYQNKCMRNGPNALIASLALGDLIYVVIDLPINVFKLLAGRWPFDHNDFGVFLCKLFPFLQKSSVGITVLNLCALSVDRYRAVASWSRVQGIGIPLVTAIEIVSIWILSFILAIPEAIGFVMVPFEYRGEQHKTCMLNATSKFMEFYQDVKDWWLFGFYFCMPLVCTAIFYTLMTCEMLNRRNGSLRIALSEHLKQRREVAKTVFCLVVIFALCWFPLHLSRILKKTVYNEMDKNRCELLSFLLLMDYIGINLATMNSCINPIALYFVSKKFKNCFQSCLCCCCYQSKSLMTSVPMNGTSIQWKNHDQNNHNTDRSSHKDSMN
Method: (§1) The following cultured cells were used in binding experiments: Ltk-cells expressing recombinant human ETAR (HETA), and CHOKI cells expressing recombinant human ETBR (HETB).
(§2) Membranes were prepared from cultured cells by lysing cells in cold lysis buffer (5 mM HEPES, 2 mM EDTA, pH 7.4) and homogenizing with a Dounce “A” homogenizer. The homogenate was centrifuged at 30,000×g for 20 minutes at […]. Membrane pellets were suspended in cold buffer containing 20 mM Tris, 2 mM EDTA, 200 μM Pefabloc, 10 μM phosphoramidon, 10 μM leupeptin, 1 μM pepstatin at pH 7.4 and frozen at […] until use. Membranes were thawed and homogenized with a Brinkmann Polytron then diluted in tissue buffer containing 20 mM Tris, 2 mM EDTA, 200 μM Pefabloc, and 100 μM bacitracin (pH 7.4). Radioligand and competing ligands were prepared in binding buffer containing 20 mM Tris, 2 mM EDTA, and 0.1% BSA.
(§3) The assay was terminated by filtration over Whatman GF/B filters which were presoaked with 50 mM Tris, pH 7.4 containing 0.2% BSA and 100 μM bacitracin. Nonspecific binding was defined as binding in the presence of 100 nM ET-1.

[2] = target: T2, recombinant human ETBR (HETB) (Homo sapiens, UniProt P24530); assay: Radioligand binding, [125I]ET-1 to membranes of CHOKI cells expressing recombinant human ETBR (HETB); details: [125I]ET-1 binding, human ETB, CHOKI cell membranes
T2 construct: expressed in transfected cells; host or cells: CHOKI (CHO-K1) cells (membrane preparation)
T2 sequence (P24530 27-442): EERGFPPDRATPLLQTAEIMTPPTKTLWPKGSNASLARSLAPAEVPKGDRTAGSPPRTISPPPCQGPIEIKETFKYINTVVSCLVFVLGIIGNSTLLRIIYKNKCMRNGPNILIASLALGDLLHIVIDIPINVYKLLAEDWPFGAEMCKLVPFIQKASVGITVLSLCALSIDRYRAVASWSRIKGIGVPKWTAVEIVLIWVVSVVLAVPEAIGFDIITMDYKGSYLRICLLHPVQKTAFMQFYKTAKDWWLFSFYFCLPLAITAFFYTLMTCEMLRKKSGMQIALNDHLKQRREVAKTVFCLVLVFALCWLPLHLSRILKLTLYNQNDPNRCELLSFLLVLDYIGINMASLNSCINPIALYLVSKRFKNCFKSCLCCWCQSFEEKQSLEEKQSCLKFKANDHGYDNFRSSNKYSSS
Method: as §1, §2, §3

Molecule	IC50 [1] [nM]	IC50 [2] [nM]
4-(6-Methoxybenzo[1,3]dioxol-5-yl)-1,1-dioxo-2-(2-trifluoro-methyl-phenyl)-1,2-dihydro-1λ^6-benzo[e]r [1,2]thiazine-3-carboxylic acid [Example 30]	95	> 2500
COc1cc(OC)cc(C2=C(C(=O)O)N(c3ccccc3Br)S(=O)(=O)c3ccccc32)c1 [Example 3, 2-(2-Bromophenyl)-4-(3,5-dimethoxy-phenyl)-1,1-dioxo-1,2-dihydro-1 λ^6-benzo[e][1,2]thiazine-3-carboxylic acid]	3	> 2500
COc1cc(C2=C(C(=O)O)N(c3ccccc3Cl)S(=O)(=O)c3ccccc32)cc2c1OCO2 [Example 4, 2-(2-Chloro-phenyl)-4-(7-methoxy-benzo[1,3]dioxol-5-yl)-1,1-dioxo-1,2-dihydro-1λ^6-benzo[e][1,2]-thiazine-3-carboxylic acid]	3	5600
COc1cc(C2=C(C(=O)O)N(c3ccccc3Cc3ccccc3)S(=O)(=O)c3ccccc32)cc2c1OCO2 [Example 5, 2-(2-Benzylphenyl)4-(7-methoxy-benzo[1,3]dioxo-5-yl)-1,1-dioxo-1,2-dihydro-1λ^6-benzo[e][1,2]thiazine-3-carboxylic acid]	4	2000
CCc1ccccc1N1C(C(=O)O)=C(c2ccc3c(c2)OCO3)c2ccccc2S1(=O)=O [Example 13, 4-Benzo [1,3]dioxol-5-yl-2-(2ethyl-phenyl)-1,1-dioxo-1,2-dihydro-1λ^6-benzo[e][1,2]thiazine-3-carboxylic acid]	23	> 2500
CC(C)c1ccccc1N1C(C(=O)O)=C(c2ccc3c(c2)OCO3)c2ccccc2S1(=O)=O [Example 15, 4-Benzo[1,3]dioxol-5-yl-2-(2isopropylphenyl)-1,1-dioxo 1,2-dihydro 1λ^6-benzo[e][1,2]thiazine-3-carboxylic acid]	90	11000
CCCCc1ccccc1N1C(C(=O)O)=C(c2ccc3c(c2)OCO3)c2ccccc2S1(=O)=O [Example 16, 4-Benzo[1,3]dioxol-5-yl-2-(2butylphenyl)-1,1-dioxo-1,2-dihydro-1λ^6-benzo[e][1,2]thiazine-3-carboxylic acid]	26	> 2500
O=C(O)C1=C(c2ccc3c(c2)OCO3)c2ccccc2S(=O)(=O)N1c1ccccc1F [Example 19, 4-Benzo-[1,3]dioxol-5-yl-2-(2-fluorohenyl)-1,1-dioxo-1,2dihydro-1λ^6-benzo[e]rl[2]thiazine-3-carboxylic acid]	110	> 25000
O=C(O)C1=C(c2ccc3c(c2)OCO3)c2ccccc2S(=O)(=O)N1c1cccc(Cl)c1Cl [Example 21, 4-Benzo-[1,3]dioxol-5-yl-2-(2,3-dichlorophenyl)1,1-dioxo-1,2dihydro1λ^6-benzo [e][1,2]thiazine-3-carboxylic acid]	30	13000
O=C(O)C1=C(c2ccc3c(c2)OCO3)c2ccccc2S(=O)(=O)N1c1ccc(Cl)cc1Cl [Example 22]	50	13000
COc1ccc(N2C(C(=O)O)=C(c3ccc4c(c3)OCO4)c3ccccc3S2(=O)=O)c(Cl)c1 [Example 23, 4-Benzo[1,3]dioxol-5-yl-2-(2-chloro-4-methoxyphenyl)-1,1-dioxo-1,2-dihydro-1λ^6-benzo[e][1,2]thiazine-3-carboxylic acid]	21	6200
Cc1c(Cl)cccc1N1C(C(=O)O)=C(c2ccc3c(c2)OCO3)c2ccccc2S1(=O)=O [Example 24]	30	17000
Cc1cccc(C)c1N1C(C(=O)O)=C(c2ccc3c(c2)OCO3)c2ccccc2S1(=O)=O [Example 26, 4-Benzo[1,3]dioxol-5-yl-2-(2,6dimethyl-phenyl)-1,1-dioxo-1,2dihydro-1λ^6-benzo[e][1,2]thiazine-3-carboxylic acid]	17	> 25000
